In ChEMBL document CHEMBL1201862, “PubChem BioAssay data set” (2004):
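Test compounds were applied to cells in 96-well plates for 48 hours at 5 doses. Here, GI50 denotes the concentration required for 50% inhibition of growth.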 Calls of active or inactive are those of the source. No stated cut-off is given here; in the data, active = GI50 up to about 1.1 µM and inactive = higher.

Tests used:
Assay in all cases: inhibition of tumour cell growth, NCI panel, 48 h
SN12C = test system: SN12C
A498 = test system: A498
MOLT-4 = test system: MOLT-4
K562 = test system: K562
KM12 = test system: KM12
SK-OV-3 = test system: SK-OV-3
SNB-75 = test system: SNB-75
HOP-62 = test system: HOP-62
HL-60 = test system: HL-60
T47D = test system: T47D
U-251 = test system: U-251
UO-31 = test system: UO-31
OVCAR-3 = test system: OVCAR-3
MCF7 = test system: MCF7
MDA-N = test system: MDA-N
SK-MEL-28 = test system: SK-MEL-28
OVCAR-4 = test system: OVCAR-4
OVCAR-5 = test system: OVCAR-5
COLO 205 = test system: COLO 205
Malme-3M = test system: Malme-3M

| Structure (SMILES) | GI50 (SN12C) | GI50 (A498) | GI50 (MOLT-4) | GI50 (K562) | GI50 (KM12) | GI50 (SK-OV-3) | GI50 (SNB-75) | GI50 (HOP-62) | GI50 (HL-60) | GI50 (T47D) | GI50 (U-251) | GI50 (UO-31) | GI50 (OVCAR-3) | GI50 (MCF7) | GI50 (MDA-N) | GI50 (SK-MEL-28) | GI50 (OVCAR-4) | GI50 (OVCAR-5) | GI50 (COLO 205) | GI50 (Malme-3M) |
| --- | --- | --- | --- | --- | --- | --- | --- | --- | --- | --- | --- | --- | --- | --- | --- | --- | --- | --- | --- | --- |
| c1ccc(C2SCC3=Nc4ccccc4CN32)cc1 (configuration not stated) | > 100 µM (inactive) | > 100 µM (inactive) | 34.7 µM (inactive) | 33.5 µM (inactive) | 43.5 µM (inactive) | 23.4 µM (inactive) | 30.5 µM (inactive) | 26.1 µM (inactive) | 23.6 µM (inactive) | 25.8 µM (inactive) | 63 µM (inactive) | 29.9 µM (inactive) | 0.78 µM (active) | 26.9 µM (inactive) | 87.7 µM (inactive) | 50.4 µM (inactive) | 78.2 µM (inactive) | 25.8 µM (inactive) | 19.4 µM (inactive) |  |
| O=[N+]([O-])C1CC/C(=N/O)c2nonc21 (configuration not stated) | > 10 µM (inactive) | > 10 µM (inactive) | > 10 µM (inactive) | > 10 µM (inactive) | > 10 µM (inactive) |  |  | > 10 µM (inactive) | > 10 µM (inactive) | > 10 µM (inactive) | > 10 µM (inactive) | > 10 µM (inactive) | > 10 µM (inactive) | > 10 µM (inactive) | > 10 µM (inactive) | > 10 µM (inactive) | > 10 µM (inactive) | > 10 µM (inactive) | > 10 µM (inactive) | > 10 µM (inactive) |
| COC(=O)C1=CCC[C@H]2[C@@]1(COC(C)=O)CC[C@@H](C)[C@]2(C)CC(=O)c1ccoc1 | 17.8 µM (inactive) | 16.7 µM (inactive) | 10.5 µM (inactive) |  | 14.4 µM (inactive) | 47.5 µM (inactive) | 12.7 µM (inactive) |  | 10.8 µM (inactive) | 8.47 µM (inactive) | 21.2 µM (inactive) | 13.4 µM (inactive) | 15.7 µM (inactive) | 16.1 µM (inactive) | 16.5 µM (inactive) |  | 14.5 µM (inactive) | 49 µM (inactive) | 12.2 µM (inactive) |  |
| N#Cc1cc(Sc2ccc(N)c(C#N)c2)ccc1N | 48.4 µM (inactive) | 43.8 µM (inactive) | 25.4 µM (inactive) | 3.44 µM (inactive) | 8.63 µM (inactive) | 23.1 µM (inactive) |  | 41.9 µM (inactive) | 1.87 µM (inactive) | 29 µM (inactive) | 29.3 µM (inactive) | 17.7 µM (inactive) | 34.7 µM (inactive) | 15.8 µM (inactive) | 4.03 µM (inactive) | 55.2 µM (inactive) | 20.4 µM (inactive) | 29.3 µM (inactive) | 8.59 µM (inactive) | 2.8 µM (inactive) |
| COc1cc2c(c(OC3OC(CO)C(O)C(O)C3O)c1)C(=O)CC(c1ccc(O)cc1)O2 (configuration not stated) | > 100 µM (inactive) | > 100 µM (inactive) | > 100 µM (inactive) | > 100 µM (inactive) | > 100 µM (inactive) | > 100 µM (inactive) | > 100 µM (inactive) |  | > 100 µM (inactive) | > 100 µM (inactive) | > 100 µM (inactive) | > 100 µM (inactive) | > 100 µM (inactive) | > 100 µM (inactive) | > 100 µM (inactive) | > 100 µM (inactive) | > 100 µM (inactive) | > 100 µM (inactive) | > 100 µM (inactive) |  |
| COC(=O)/C=C(/C)n1nc2ccccc2n1 | > 100 µM (inactive) | 77.3 µM (inactive) | > 100 µM (inactive) | > 100 µM (inactive) | > 100 µM (inactive) | > 100 µM (inactive) | > 100 µM (inactive) | > 100 µM (inactive) |  | > 100 µM (inactive) | > 100 µM (inactive) | > 100 µM (inactive) | > 100 µM (inactive) | > 100 µM (inactive) | > 100 µM (inactive) | > 100 µM (inactive) | > 100 µM (inactive) | > 100 µM (inactive) | > 100 µM (inactive) | > 100 µM (inactive) |
| Cc1ccc(NC(=S)C#N)cc1Cl | 58.5 µM (inactive) | 26.7 µM (inactive) | 32.8 µM (inactive) | 39.3 µM (inactive) | 37.8 µM (inactive) | 26.5 µM (inactive) | 21.5 µM (inactive) | 49.1 µM (inactive) |  | 32.4 µM (inactive) | 55.8 µM (inactive) |  | 21.5 µM (inactive) | 56.2 µM (inactive) | 41.7 µM (inactive) | 41.2 µM (inactive) |  | 24.8 µM (inactive) | 20.9 µM (inactive) | 23.4 µM (inactive) |
| C=C1CC[C@H]2C(C)=CC[C@H]3C(=C)C(=O)O[C@@H]3[C@@H]12 [EREMANTHIN] | > 100 µM (inactive) | > 100 µM (inactive) | > 100 µM (inactive) | > 100 µM (inactive) |  | > 100 µM (inactive) |  |  | > 100 µM (inactive) | > 100 µM (inactive) | > 100 µM (inactive) | > 100 µM (inactive) |  | > 100 µM (inactive) | > 100 µM (inactive) | > 100 µM (inactive) | > 100 µM (inactive) | > 100 µM (inactive) | 92 µM (inactive) | > 100 µM (inactive) |
